Experimental findings from ChEMBL document CHEMBL1201862, “PubChem BioAssay data set” (2004) are described below.

Molecules are shown by their SMILES. Active and inactive are the calls of the source.

Assay [1] has as its target Tyrosyl-DNA phosphodiesterase 2 (Homo sapiens, UniProt O95551). The assay can be described thus: human TDP2 enzyme inhibitors, dose response, biochemical, epi absorbance, IC50 (AID 743297).
For assay [2], the target named is T1, Apoptotic protease-activating factor 1 (Homo sapiens, UniProt O14727).
T1 sequence (O14727 whole entry): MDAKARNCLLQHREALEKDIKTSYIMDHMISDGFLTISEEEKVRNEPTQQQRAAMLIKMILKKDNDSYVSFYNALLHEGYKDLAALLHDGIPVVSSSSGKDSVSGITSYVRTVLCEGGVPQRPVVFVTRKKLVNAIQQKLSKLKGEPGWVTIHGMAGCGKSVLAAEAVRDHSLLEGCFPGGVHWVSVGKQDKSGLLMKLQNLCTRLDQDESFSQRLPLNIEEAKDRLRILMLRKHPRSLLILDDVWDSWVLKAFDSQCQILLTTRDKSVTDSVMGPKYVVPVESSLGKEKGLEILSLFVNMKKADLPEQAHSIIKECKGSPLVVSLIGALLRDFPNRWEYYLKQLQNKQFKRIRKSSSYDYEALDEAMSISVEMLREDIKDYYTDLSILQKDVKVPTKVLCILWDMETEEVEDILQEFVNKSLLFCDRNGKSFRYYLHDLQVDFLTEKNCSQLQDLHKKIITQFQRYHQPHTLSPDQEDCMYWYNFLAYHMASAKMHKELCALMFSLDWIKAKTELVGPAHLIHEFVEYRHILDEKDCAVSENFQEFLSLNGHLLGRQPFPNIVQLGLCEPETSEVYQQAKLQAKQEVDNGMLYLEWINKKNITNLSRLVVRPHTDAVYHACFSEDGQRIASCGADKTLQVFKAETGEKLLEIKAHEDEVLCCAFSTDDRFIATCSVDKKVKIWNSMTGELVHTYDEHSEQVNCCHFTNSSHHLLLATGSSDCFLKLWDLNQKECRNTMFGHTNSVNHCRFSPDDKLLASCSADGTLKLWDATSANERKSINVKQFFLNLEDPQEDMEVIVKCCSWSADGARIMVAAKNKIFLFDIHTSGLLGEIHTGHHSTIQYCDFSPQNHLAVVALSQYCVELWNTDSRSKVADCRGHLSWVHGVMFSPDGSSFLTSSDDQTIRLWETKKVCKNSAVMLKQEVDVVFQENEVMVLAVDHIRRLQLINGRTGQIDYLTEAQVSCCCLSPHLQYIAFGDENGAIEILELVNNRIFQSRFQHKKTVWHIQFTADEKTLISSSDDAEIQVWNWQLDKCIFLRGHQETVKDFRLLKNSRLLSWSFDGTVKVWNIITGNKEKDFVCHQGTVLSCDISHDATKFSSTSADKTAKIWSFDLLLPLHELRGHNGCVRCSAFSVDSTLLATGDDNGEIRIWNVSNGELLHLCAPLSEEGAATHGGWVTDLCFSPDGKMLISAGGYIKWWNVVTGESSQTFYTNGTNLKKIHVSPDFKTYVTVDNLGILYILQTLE
The class given is functional.

Assay [3] deals with Cyclin-dependent kinase 1 (Homo sapiens, UniProt P06493). The class given is functional.
Assay [4] addresses Mitogen-activated protein kinase 13 (Homo sapiens, UniProt O15264). The class given is functional.
Assay [5] deals with Vascular endothelial growth factor receptor 1 (Homo sapiens, UniProt P17948). The class given is functional.
For assay [6], the target named is Serine/threonine-protein kinase PAK 1 (Homo sapiens, UniProt Q13153). Format: functional.
The target of assay [7] is High affinity nerve growth factor receptor (Homo sapiens, UniProt P04629). The class given is functional.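 Note: NTRK1 tested as one member of a kinome-wide profiling panel.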
Assay [8] addresses cAMP-dependent protein kinase catalytic subunit PRKX (Homo sapiens, UniProt P51817). The class given is functional.
Assay [9] addresses Casein kinase II subunit alpha (Homo sapiens, UniProt P68400). The class given is functional.
Assay [10] concerns the target Serine/threonine-protein kinase D2 (Homo sapiens, UniProt Q9BZL6). The class given is functional.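 Note: measured against PRKD2 as one member of a kinome-wide kinase profiling panel.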
For the next assay, the target named is SRSF protein kinase 1 (Homo sapiens, UniProt Q96SB4). The class given is functional.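 Note: measured as one member of a kinome-wide kinase profiling panel.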
Assay [11] concerns the target Rho-associated protein kinase 1 (Homo sapiens, UniProt Q13464). Format: functional.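 Note: measured within a broad kinome-wide panel profiling many kinases.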
In assay [12] the target is RAC-gamma serine/threonine-protein kinase (Homo sapiens, UniProt Q9Y243). Format: functional.
Assay [13] addresses T2, Polyadenylate-binding protein 1 (Homo sapiens, UniProt P11940). The assay can be described thus: PABP1 MLLE–PAM2 interaction inhibitors, dose response, miRNA deadenylation inhibitor project, biochemical, fluorescence polarization, Cy5-PAM2 peptide, secondary (AID 602260). The class given is functional. To be noted: read-out: IC50_Mean. Background: Fluorescence polarisation rises when a labelled molecule tumbles more slowly, as on binding a larger partner.

Assay [14] concerns the target Tyrosine-protein kinase Fyn (Homo sapiens, UniProt P06241). The class given is functional.
Assay [15] concerns the target Interleukin-1 receptor-associated kinase 4 (Homo sapiens, UniProt Q9NWZ3). The class given is functional.
The target in assay [16] is Phosphorylase b kinase gamma catalytic chain, liver/testis isoform (Homo sapiens, UniProt P15735). Format: functional.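 Note: PHKG2 measured as one member of a kinome-wide kinase panel.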
In assay [17] the target is cAMP-dependent protein kinase catalytic subunit alpha (Homo sapiens, UniProt P17612). The class given is functional.
Assay [18] addresses Serine/threonine-protein kinase N2 (Homo sapiens, UniProt Q16513). Format: functional.
The target in assay [19] is Serine/threonine-protein kinase Nek2 (Homo sapiens, UniProt P51955). Format: functional.
For assay [20], the target named is Insulin-like growth factor 1 receptor (Homo sapiens, UniProt P08069). Put plainly: Navigating the Kinome. Panel member name: IGF1R. Format: functional.
For assay [21], the target named is Tyrosine-protein kinase Srms (Homo sapiens, UniProt Q9H3Y6). Format: functional.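 Note: SRMS measured as one member of a kinome-wide kinase profiling panel.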
Assay [22] addresses Calcium/calmodulin-dependent protein kinase type 1 (Homo sapiens, UniProt Q14012). Format: functional.
For assay [23], the target named is Mitogen-activated protein kinase 12 (Homo sapiens, UniProt P53778). The class given is functional.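 Note: measured as one member of a kinome-wide kinase profiling panel.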
Assay [24] deals with T2, Polyadenylate-binding protein 1. The assay can be described thus: PABP1 MLLE–PAM2 binding inhibitor potency, dose response, biochemical, fluorescence polarization, FITC-PAM2 peptide (AID 602259). To be noted: read-out: IC50_Mean. The class given is functional.
The target of assay [25] is Dual specificity tyrosine-phosphorylation-regulated kinase 1A (Homo sapiens, UniProt Q13627). The class given is functional.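 Note: measured against DYRK1A as one member of a broad kinome profiling panel.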
In assay [26] the target is Proto-oncogene tyrosine-protein kinase receptor Ret (Homo sapiens, UniProt P07949). Format: functional.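 Note: measured within a kinome-wide profiling panel, RET as the panel member.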
In assay [27] the target is Proto-oncogene tyrosine-protein kinase Src (Homo sapiens, UniProt P12931). Format: functional.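 Note: SRC entry within a kinome-wide kinase profiling panel.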
Proto-oncogene tyrosine-protein kinase Src, sequence (P12931 2-536 limits assumed): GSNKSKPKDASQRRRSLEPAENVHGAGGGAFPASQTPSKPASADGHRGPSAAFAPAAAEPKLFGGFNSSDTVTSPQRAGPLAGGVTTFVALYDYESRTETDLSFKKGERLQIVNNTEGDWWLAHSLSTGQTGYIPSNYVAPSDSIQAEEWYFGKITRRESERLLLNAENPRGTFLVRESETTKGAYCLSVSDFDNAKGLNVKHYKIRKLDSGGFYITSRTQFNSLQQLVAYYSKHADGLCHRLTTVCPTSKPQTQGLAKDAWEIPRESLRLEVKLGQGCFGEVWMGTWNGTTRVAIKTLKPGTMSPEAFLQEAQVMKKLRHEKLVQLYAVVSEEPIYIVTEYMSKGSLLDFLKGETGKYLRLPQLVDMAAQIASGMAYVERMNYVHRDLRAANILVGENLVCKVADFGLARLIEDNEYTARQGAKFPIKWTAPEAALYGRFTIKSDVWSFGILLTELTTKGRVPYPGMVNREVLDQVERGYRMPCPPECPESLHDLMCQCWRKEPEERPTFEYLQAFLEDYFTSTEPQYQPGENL

T2 sequence (P11940 whole entry): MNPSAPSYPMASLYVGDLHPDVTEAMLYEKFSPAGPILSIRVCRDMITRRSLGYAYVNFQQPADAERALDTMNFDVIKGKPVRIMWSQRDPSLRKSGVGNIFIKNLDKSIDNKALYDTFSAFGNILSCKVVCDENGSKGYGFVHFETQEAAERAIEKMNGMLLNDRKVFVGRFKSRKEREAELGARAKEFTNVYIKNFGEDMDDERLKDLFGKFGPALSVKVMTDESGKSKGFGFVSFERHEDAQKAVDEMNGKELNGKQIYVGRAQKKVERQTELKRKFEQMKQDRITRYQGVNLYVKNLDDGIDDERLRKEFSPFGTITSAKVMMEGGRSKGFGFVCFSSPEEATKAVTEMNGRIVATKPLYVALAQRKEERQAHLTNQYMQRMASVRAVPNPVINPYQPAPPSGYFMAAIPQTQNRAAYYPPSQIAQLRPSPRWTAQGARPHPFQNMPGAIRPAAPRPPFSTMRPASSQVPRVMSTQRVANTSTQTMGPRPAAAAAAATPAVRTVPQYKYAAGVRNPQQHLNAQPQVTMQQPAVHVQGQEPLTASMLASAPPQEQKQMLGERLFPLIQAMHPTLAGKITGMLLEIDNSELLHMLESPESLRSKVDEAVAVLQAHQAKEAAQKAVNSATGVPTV
Calcium/calmodulin-dependent protein kinase type 1, sequence (Q14012 whole entry): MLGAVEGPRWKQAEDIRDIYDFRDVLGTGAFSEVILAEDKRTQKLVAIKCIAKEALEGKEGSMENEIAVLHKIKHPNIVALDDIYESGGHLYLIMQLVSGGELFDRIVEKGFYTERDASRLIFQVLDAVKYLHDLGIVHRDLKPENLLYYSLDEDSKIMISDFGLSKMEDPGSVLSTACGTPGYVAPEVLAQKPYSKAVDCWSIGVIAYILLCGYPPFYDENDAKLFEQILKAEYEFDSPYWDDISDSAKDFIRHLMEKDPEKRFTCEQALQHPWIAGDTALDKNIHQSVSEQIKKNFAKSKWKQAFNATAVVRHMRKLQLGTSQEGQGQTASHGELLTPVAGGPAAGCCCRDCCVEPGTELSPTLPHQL
Proto-oncogene tyrosine-protein kinase receptor Ret, sequence (P07949 whole entry): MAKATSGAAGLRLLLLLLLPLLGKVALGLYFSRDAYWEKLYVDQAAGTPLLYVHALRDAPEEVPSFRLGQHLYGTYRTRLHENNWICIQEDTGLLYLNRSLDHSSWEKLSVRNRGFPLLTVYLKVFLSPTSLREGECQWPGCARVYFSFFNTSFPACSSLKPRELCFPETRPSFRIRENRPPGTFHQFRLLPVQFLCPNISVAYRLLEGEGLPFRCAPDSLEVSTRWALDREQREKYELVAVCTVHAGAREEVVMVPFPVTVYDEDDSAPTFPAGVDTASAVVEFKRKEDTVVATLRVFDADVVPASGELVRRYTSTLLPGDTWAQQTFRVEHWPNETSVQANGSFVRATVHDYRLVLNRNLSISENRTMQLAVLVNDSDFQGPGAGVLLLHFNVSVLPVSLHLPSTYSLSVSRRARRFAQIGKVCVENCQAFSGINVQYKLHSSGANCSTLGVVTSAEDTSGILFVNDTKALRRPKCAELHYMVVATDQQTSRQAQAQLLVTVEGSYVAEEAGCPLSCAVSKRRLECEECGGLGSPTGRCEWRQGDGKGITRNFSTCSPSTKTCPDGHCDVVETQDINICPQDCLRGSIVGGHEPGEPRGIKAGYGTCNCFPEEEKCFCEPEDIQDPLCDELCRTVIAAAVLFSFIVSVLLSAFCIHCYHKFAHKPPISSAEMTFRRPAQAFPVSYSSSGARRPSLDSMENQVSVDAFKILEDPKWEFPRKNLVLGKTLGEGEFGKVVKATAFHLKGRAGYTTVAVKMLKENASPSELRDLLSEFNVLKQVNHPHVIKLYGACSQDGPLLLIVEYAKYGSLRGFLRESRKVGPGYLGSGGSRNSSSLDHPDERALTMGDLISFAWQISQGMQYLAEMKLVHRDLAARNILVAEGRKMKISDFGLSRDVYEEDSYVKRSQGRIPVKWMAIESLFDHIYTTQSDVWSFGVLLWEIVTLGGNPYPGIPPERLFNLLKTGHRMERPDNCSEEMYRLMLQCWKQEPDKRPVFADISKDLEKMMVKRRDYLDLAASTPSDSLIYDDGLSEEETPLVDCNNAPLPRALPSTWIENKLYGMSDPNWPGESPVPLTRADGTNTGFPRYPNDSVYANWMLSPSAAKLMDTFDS
Serine/threonine-protein kinase D2, sequence (Q9BZL6 whole entry): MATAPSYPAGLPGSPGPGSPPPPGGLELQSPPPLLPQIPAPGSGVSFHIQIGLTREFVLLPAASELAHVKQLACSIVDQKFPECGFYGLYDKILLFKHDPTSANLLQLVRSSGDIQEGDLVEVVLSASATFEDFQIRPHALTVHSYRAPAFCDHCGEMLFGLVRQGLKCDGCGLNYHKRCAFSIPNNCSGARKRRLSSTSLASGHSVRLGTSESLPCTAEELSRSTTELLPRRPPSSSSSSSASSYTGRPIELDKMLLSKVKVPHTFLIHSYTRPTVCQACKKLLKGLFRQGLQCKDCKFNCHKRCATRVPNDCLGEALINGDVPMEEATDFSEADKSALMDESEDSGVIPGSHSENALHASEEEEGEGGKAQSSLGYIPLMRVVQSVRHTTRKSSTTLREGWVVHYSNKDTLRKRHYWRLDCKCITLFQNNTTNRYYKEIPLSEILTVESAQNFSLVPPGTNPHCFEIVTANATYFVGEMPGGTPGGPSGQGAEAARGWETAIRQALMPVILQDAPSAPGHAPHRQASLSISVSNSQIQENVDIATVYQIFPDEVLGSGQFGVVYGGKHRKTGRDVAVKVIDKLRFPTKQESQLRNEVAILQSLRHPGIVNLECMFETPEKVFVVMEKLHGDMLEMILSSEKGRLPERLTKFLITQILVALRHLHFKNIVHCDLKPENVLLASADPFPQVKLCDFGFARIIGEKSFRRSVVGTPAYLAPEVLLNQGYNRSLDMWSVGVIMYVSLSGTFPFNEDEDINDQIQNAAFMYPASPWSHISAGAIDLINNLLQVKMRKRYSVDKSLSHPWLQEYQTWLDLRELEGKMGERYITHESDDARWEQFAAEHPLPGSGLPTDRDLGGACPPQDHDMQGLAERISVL
Tyrosine-protein kinase Srms, sequence (Q9H3Y6 whole entry): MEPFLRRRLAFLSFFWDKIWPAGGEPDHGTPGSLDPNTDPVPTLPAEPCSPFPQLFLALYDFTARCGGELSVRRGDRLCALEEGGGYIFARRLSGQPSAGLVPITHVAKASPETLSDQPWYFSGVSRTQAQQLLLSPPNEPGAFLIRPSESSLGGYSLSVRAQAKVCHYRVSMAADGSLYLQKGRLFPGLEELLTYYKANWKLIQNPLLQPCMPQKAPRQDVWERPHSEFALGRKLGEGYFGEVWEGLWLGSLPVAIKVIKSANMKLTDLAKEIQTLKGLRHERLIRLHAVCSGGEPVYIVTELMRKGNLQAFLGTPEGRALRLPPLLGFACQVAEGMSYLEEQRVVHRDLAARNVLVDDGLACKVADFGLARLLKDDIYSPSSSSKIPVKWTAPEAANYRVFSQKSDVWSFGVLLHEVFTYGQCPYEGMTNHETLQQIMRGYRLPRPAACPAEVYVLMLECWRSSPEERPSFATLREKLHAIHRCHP
Tyrosine-protein kinase Fyn, sequence (P06241 whole entry): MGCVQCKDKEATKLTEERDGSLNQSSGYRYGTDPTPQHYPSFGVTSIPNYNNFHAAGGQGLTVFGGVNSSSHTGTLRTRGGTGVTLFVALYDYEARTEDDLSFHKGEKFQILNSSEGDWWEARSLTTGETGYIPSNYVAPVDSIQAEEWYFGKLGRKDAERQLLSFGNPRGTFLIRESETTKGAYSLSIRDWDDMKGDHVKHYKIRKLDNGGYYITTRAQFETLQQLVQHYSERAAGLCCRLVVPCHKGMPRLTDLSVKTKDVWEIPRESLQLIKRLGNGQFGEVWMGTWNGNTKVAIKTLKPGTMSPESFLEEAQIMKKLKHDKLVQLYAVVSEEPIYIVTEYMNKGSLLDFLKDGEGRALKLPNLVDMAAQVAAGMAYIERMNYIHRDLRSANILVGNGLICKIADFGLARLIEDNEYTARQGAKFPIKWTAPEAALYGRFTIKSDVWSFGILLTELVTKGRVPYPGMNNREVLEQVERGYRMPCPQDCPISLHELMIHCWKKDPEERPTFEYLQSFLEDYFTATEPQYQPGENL
Phosphorylase b kinase gamma catalytic chain, liver/testis isoform, sequence (P15735 whole entry, canonical isoform): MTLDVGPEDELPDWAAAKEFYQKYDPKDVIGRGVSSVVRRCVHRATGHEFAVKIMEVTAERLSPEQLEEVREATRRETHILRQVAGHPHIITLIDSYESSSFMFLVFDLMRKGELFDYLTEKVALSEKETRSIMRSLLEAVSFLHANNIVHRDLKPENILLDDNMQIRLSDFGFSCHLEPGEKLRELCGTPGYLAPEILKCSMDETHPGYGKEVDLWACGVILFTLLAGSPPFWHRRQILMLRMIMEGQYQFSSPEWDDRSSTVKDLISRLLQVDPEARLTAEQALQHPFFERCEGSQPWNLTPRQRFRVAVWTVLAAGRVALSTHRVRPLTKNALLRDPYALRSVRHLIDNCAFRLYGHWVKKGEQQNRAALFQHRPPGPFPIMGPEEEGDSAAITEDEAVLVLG

Regarding `COc1ccc(C(C[N+](=O)[O-])c2c(C)[nH]n(-c3ccccc3)c2=O)cc1` (stereo not drawn), the IC50 in assay [1] is 6910 nM (active); in [2] it was 14600 nM (active).

The Ki is a dissociation constant, usually derived from enzyme kinetics or from competition with a known ligand. As to `Oc1c2ccccc2c2c3c(cccc13)N=N2` [SP-600125], the inhibitory constant (Ki) in [3] was 1000 nM (active); in assay [4], > 7940 nM (inactive); in assay [5] it was 200 nM (active); in assay [6] it was > 10000 nM (inactive); in [7], 1260 nM (active); in assay [8] it was > 1580 nM (inactive). In addition, the inhibition constant (Ki) in [9] was 501 nM (active); in assay [10] it was 158 nM (active); at SRSF protein kinase 1 it was > 7940 nM (inactive); in assay [11] it was 2000 nM (active); in assay [12], > 10000 nM (inactive); in assay [14] it was > 794 nM (inactive). Besides, the inhibitory constant (Ki) in assay [15] was 158 nM (active); in assay [16], 631 nM (active); in assay [17], > 7940 nM (inactive); in assay [18], > 7940 nM (inactive); in assay [19] it was 6310 nM (active); in assay [20], > 2000 nM (inactive). Also, the Ki was > 1580 nM (inactive) in [21]; > 1580 nM (inactive) in [22]; > 6310 nM (inactive) in assay [23]; 126 nM (active) in assay [25]; 63.1 nM (active) in assay [26]; > 2000 nM (inactive) in assay [27]. The IC50 in assay [13] was > 66000 nM (inactive); in assay [24], 30900 nM (inactive).
